Measured values as given in the supplement of paper PMC10011410.
± gives the standard deviation of the averaged measurements.

How the values were obtained:
[1] = tested on: U-2 OS; assay: cell painting activity score (Mahalanobis distance from DMSO wells); higher = stronger morphological phenotype; settings: 24 h
Description: (§1)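 Cell painting in U-2 OS cells (384-well, about 1,500 cells per well), compound exposure 24 h, usually six 2-fold concentrations from 20 to 0.625 uM (some compounds higher or lower). Relative cell count is the cell number per well relative to DMSO wells. Activity score is the Mahalanobis distance of the morphological profile from DMSO control wells. Mean of four technical replicate plates.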

[2] = tested on: U-2 OS; assay: relative cell count vs DMSO (cell painting) (fraction of DMSO control); higher = more cells remaining (less cytotoxic); settings: 24 h
Description: as §1

[3] = tested on: U-2 OS; assay: AUC of culture confluence over time (live-cell imaging) (AUC (confluence % x time)); higher = more confluent culture (less growth inhibition)
Description: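 Live-cell Incucyte imaging of U-2 OS cells in F-12K medium. Compounds were tested mostly at 5, 10 and 20 uM, and cells were imaged every 4 h for up to 60 h. Value is the area under the curve of phase-contrast confluence over time.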

## CCN(CC)CCNC(=O)c1c(C)[nH]c(/C=C2\C(=O)Nc3ccc(F)cc32)c1C
[1]; 0.625 µM
  cell painting activity score: 11.2
[1]; 1.25 µM
  cell painting activity score: 11.5
[1]; 2.5 µM
  cell painting activity score: 11.3
[1]; 5 µM
  cell painting activity score: 12.4
[1]; 10 µM
  cell painting activity score: 14.5
[1]; 20 µM
  cell painting activity score: 25.1
[2]; 0.625 µM
  relative cell count: 0.983
[2]; 1.25 µM
  relative cell count: 0.945
[2]; 2.5 µM
  relative cell count: 0.983
[2]; 5 µM
  relative cell count: 0.917
[2]; 10 µM
  relative cell count: 0.831
[2]; 20 µM
  relative cell count: 0.503

## CN[C@@H]1C[C@H]2O[C@@](C)([C@@H]1OC)n1c3ccccc3c3c4c(c5c6ccccc6n2c5c31)C(=O)NC4
[1]; 0.019532 µM
  cell painting activity score: 16.8 ± 1.3
[1]; 0.07812 µM
  cell painting activity score: 19.8 ± 1.5
[1]; 0.3124 µM
  cell painting activity score: 21.2
[1]; 0.3126 µM
  cell painting activity score: 25.8 ± 2.3
[1]; 1.25 µM
  cell painting activity score: 24.2 ± 2.7
[1]; 5 µM
  cell painting activity score: 25.5 ± 2.6
[1]; 20 µM
  cell painting activity score: 24.1 ± 2
[2]; 0.019532 µM
  relative cell count: 0.757 ± 0.098
[2]; 0.07812 µM
  relative cell count: 0.467 ± 0.25
[2]; 0.3124 µM
  relative cell count: 0.294
[2]; 0.3126 µM
  relative cell count: 0.0507 ± 0.0014
[2]; 1.25 µM
  relative cell count: 0.095 ± 0.0065
[2]; 5 µM
  relative cell count: 0.127 ± 0.042
[2]; 20 µM
  relative cell count: 0.128 ± 0.039

## COc1c(O)c2c(=O)cc3c4c5c(cc(=O)c6c(O)c(OC)c(CC(C)O)c(c(c1CC(C)O)c24)c65)OCO3 (stereo not given)
[1]; 0.625 µM
  cell painting activity score: 4.68
[1]; 1.25 µM
  cell painting activity score: 7.7
[1]; 2.5 µM
  cell painting activity score: 10.5
[1]; 5 µM
  cell painting activity score: 13
[1]; 10 µM
  cell painting activity score: 12
[1]; 20 µM
  cell painting activity score: 13.9
[2]; 0.625 µM
  relative cell count: 0.971
[2]; 1.25 µM
  relative cell count: 0.918
[2]; 2.5 µM
  relative cell count: 0.859
[2]; 5 µM
  relative cell count: 0.682
[2]; 10 µM
  relative cell count: 0.499
[2]; 20 µM
  relative cell count: 0.366

## O=C1Cc2c([nH]c3ccc(Br)cc23)-c2ccccc2N1
[1]; 0.625 µM
  cell painting activity score: 7.76
[1]; 1.25 µM
  cell painting activity score: 10.8
[1]; 2.5 µM
  cell painting activity score: 12.7
[1]; 5 µM
  cell painting activity score: 13.7
[1]; 10 µM
  cell painting activity score: 14.7
[1]; 20 µM
  cell painting activity score: 13.6
[2]; 0.625 µM
  relative cell count: 0.977
[2]; 1.25 µM
  relative cell count: 0.959
[2]; 2.5 µM
  relative cell count: 0.911
[2]; 5 µM
  relative cell count: 0.835
[2]; 10 µM
  relative cell count: 0.557
[2]; 20 µM
  relative cell count: 0.164

## CC(C)(C)c1cc(O)ccc1O
[1]; 0.625 µM
  cell painting activity score: 4.14
[1]; 1.25 µM
  cell painting activity score: 4.2
[1]; 2.5 µM
  cell painting activity score: 5.45
[1]; 5 µM
  cell painting activity score: 5.28
[1]; 10 µM
  cell painting activity score: 4.94
[1]; 20 µM
  cell painting activity score: 7.97
[2]; 0.625 µM
  relative cell count: 0.908
[2]; 1.25 µM
  relative cell count: 0.958
[2]; 2.5 µM
  relative cell count: 0.948
[2]; 5 µM
  relative cell count: 0.913
[2]; 10 µM
  relative cell count: 0.945
[2]; 20 µM
  relative cell count: 0.949

## [Cl][Pt+2][Cl].[NH2-].[NH2-]
[1]; 0.2062 µM
  cell painting activity score: 5.52
[1]; 0.4124 µM
  cell painting activity score: 4.94
[1]; 0.825 µM
  cell painting activity score: 3.93
[1]; 1.65 µM
  cell painting activity score: 5.77
[1]; 3.3 µM
  cell painting activity score: 3.26
[1]; 6.6 µM
  cell painting activity score: 9.14
[2]; 0.2062 µM
  relative cell count: 0.954
[2]; 0.4124 µM
  relative cell count: 0.964
[2]; 0.825 µM
  relative cell count: 0.902
[2]; 1.65 µM
  relative cell count: 0.701
[2]; 3.3 µM
  relative cell count: 0.937
[2]; 6.6 µM
  relative cell count: 0.666

## CC(C)C[C@@H](C=O)NC(=O)[C@H](CC(C)C)NC(=O)[C@H](CC(C)C)NC(=O)OCc1ccccc1
[1]; 0.625 µM
  cell painting activity score: 5.55
[1]; 1.25 µM
  cell painting activity score: 9.38
[1]; 2.5 µM
  cell painting activity score: 15.5
[1]; 5 µM
  cell painting activity score: 15.7
[1]; 10 µM
  cell painting activity score: 16
[1]; 20 µM
  cell painting activity score: 17.7
[2]; 0.625 µM
  relative cell count: 0.974
[2]; 1.25 µM
  relative cell count: 0.824
[2]; 2.5 µM
  relative cell count: 0.479
[2]; 5 µM
  relative cell count: 0.226
[2]; 10 µM
  relative cell count: 0.124
[2]; 20 µM
  relative cell count: 0.103

## COS(=O)(=O)O.C[n+]1c2ccccc2nc2ccccc21
[1]; 0.625 µM
  cell painting activity score: 4.8
[1]; 1.25 µM
  cell painting activity score: 5.06
[1]; 2.5 µM
  cell painting activity score: 9.91
[1]; 5 µM
  cell painting activity score: 14.3
[1]; 10 µM
  cell painting activity score: 19.6
[1]; 20 µM
  cell painting activity score: 23.1
[2]; 0.625 µM
  relative cell count: 0.956
[2]; 1.25 µM
  relative cell count: 0.92
[2]; 2.5 µM
  relative cell count: 0.807
[2]; 5 µM
  relative cell count: 0.265
[2]; 10 µM
  relative cell count: 0.282
[2]; 20 µM
  relative cell count: 0.0549

## O=C([O-])C(=O)[O-].[NH-][C@@H]1CCCC[C@H]1[NH-].[Pt+4]
[1]; 0.625 µM
  cell painting activity score: 4.3
[1]; 1.25 µM
  cell painting activity score: 8.95
[1]; 2.5 µM
  cell painting activity score: 20.4
[1]; 5 µM
  cell painting activity score: 20
[1]; 10 µM
  cell painting activity score: 19.8
[1]; 20 µM
  cell painting activity score: 22.1
[2]; 0.625 µM
  relative cell count: 0.86
[2]; 1.25 µM
  relative cell count: 0.786
[2]; 2.5 µM
  relative cell count: 0.66
[2]; 5 µM
  relative cell count: 0.501
[2]; 10 µM
  relative cell count: 0.35
[2]; 20 µM
  relative cell count: 0.203

## CC(C)(C)C1=CC(=O)C=CC1=O
[1]; 0.625 µM
  cell painting activity score: 8.46
[1]; 1.25 µM
  cell painting activity score: 9.82
[1]; 2.5 µM
  cell painting activity score: 11.5
[1]; 5 µM
  cell painting activity score: 13.4
[1]; 10 µM
  cell painting activity score: 20.3
[1]; 20 µM
  cell painting activity score: 17.6
[2]; 0.625 µM
  relative cell count: 0.952
[2]; 1.25 µM
  relative cell count: 0.904
[2]; 2.5 µM
  relative cell count: 0.867
[2]; 5 µM
  relative cell count: 0.435
[2]; 10 µM
  relative cell count: 0.32
[2]; 20 µM
  relative cell count: 0.124

## Oc1ccc(/C=C\c2cc(O)cc(O)c2)cc1
[3]; 5 µM
  AUC of culture confluence over time: 42.1
[3]; 10 µM
  AUC of culture confluence over time: 46.9
[3]; 20 µM
  AUC of culture confluence over time: 39.8
